Experiments:
[1] = system: Blumeria graminis f. sp. tritici; assay: Test K (K1-K5): wheat powdery mildew, Compound 81 alone and in mixtures, observed and Colby expected control; assay type: in vivo; conditions: for Test K4 Obsd, disease control rating / Test K5 Obsd, disease control rating: wheat powdery mildew
[2] = system: Puccinia recondita f sp. tritici; assay: Test L (L1-L5): wheat leaf rust, Compound 81 alone and in mixtures, observed and Colby expected control; assay type: in vivo; conditions: for Test L4 Obsd, disease control rating / Test L5 Obsd, disease control rating: wheat leaf rust

Cc1nn(C)c(Nc2c(F)cc(Cl)cc2F)c1-c1ccc(F)cc1Cl [Compound 81, N-(4-chloro-2,6-difluorophenyl)-4-(2-chloro-4-fluorophenyl)-1,3-dimethyl-1H-pyrazole-5-amine]
Test K1 Obsd ([1]; Compound 81 1 ppm alone): 0%
Test K2 Obsd ([1]; Compound 81 1 ppm alone): 91%
Test K3 Obsd ([1]; Compound 81 1 ppm alone): 0%
Test K1 Obsd ([1]; Compound 81 2 ppm alone): 87%
Test K2 Obsd ([1]; Compound 81 2 ppm alone): 91%
Test K3 Obsd ([1]; Compound 81 2 ppm alone): 0%
Test K1 Obsd ([1]; Compound 81 5 ppm alone): 99%
Test K2 Obsd ([1]; Compound 81 5 ppm alone): 91%
Test K3 Obsd ([1]; Compound 81 5 ppm alone): 90%
Test K1 Obsd ([1]; Compound 81 10 ppm alone): 100%
Test K2 Obsd ([1]; Compound 81 10 ppm alone): 100%
Test K3 Obsd ([1]; Compound 81 10 ppm alone): 99%
Test K4 Obsd, disease control rating ([1]; Compound 81 1 ppm alone): 0%
Test K5 Obsd, disease control rating ([1]; Compound 81 1 ppm alone): 0%
Test K4 Obsd, disease control rating ([1]; Compound 81 2 ppm alone): 0%
Test K5 Obsd, disease control rating ([1]; Compound 81 2 ppm alone): 0%
Test K4 Obsd, disease control rating ([1]; Compound 81 5 ppm alone): 0%
Test K5 Obsd, disease control rating ([1]; Compound 81 5 ppm alone): 0%
Test K5 Obsd, disease control rating ([1]; Compound 81 10 ppm alone): 100%
Test L1 Obsd ([2]; Compound 81 1 ppm alone): 88%
Test L2 Obsd ([2]; Compound 81 1 ppm alone): 9%
Test L3 Obsd ([2]; Compound 81 1 ppm alone): 9%
Test L1 Obsd ([2]; Compound 81 2 ppm alone): 68%
Test L2 Obsd ([2]; Compound 81 2 ppm alone): 27%
Test L3 Obsd ([2]; Compound 81 2 ppm alone): 9%
Test L1 Obsd ([2]; Compound 81 5 ppm alone): 91%
Test L2 Obsd ([2]; Compound 81 5 ppm alone): 74%
Test L3 Obsd ([2]; Compound 81 5 ppm alone): 41%
Test L1 Obsd ([2]; Compound 81 10 ppm alone): 98%
Test L2 Obsd ([2]; Compound 81 10 ppm alone): 91%
Test L3 Obsd ([2]; Compound 81 10 ppm alone): 88%
Test L4 Obsd, disease control rating ([2]; Compound 81 1 ppm alone): 0%
Test L5 Obsd, disease control rating ([2]; Compound 81 1 ppm alone): 18%
Test L4 Obsd, disease control rating ([2]; Compound 81 2 ppm alone): 27%
Test L5 Obsd, disease control rating ([2]; Compound 81 2 ppm alone): 27%
Test L4 Obsd, disease control rating ([2]; Compound 81 5 ppm alone): 68%
Test L5 Obsd, disease control rating ([2]; Compound 81 5 ppm alone): 55%
Test L4 Obsd, disease control rating ([2]; Compound 81 10 ppm alone): 88%
Test L5 Obsd, disease control rating ([2]; Compound 81 10 ppm alone): 82%

Reference: patent publication US20170150719A1, “FUNGICIDAL PYRAZOLES AND THEIR MIXTURES” (E I DU PONT DE NEMOURS AND COMPANY, priority 2010, published 2017)
